Experimental data published in BigSolDB 2.1.

Compound: CNc1nc(C)nc(OC)n1
- solubility (mole fraction) (in DMF, 278.15 K): 0.199
- solubility (mole fraction) (in DMF, 283.15 K): 0.221
- solubility (mole fraction) (in DMF, 288.15 K): 0.245
- solubility (mole fraction) (in DMF, 293.15 K): 0.269
- solubility (mole fraction) (in DMF, 298.15 K): 0.298
- solubility (mole fraction) (in DMF, 303.15 K): 0.324
- solubility (mole fraction) (in DMF, 308.15 K): 0.357
- solubility (mole fraction) (in DMF, 313.15 K): 0.386
- solubility (mole fraction) (in DMF, 318.15 K): 0.416
- solubility (mole fraction) (in DMF, 323.15 K): 0.456
- solubility (mole fraction) (in ethanol, 278.15 K): 0.0496
- solubility (mole fraction) (in ethanol, 283.15 K): 0.057
- solubility (mole fraction) (in ethanol, 288.15 K): 0.0655
- solubility (mole fraction) (in ethanol, 293.15 K): 0.0737
- solubility (mole fraction) (in ethanol, 298.15 K): 0.0818
- solubility (mole fraction) (in ethanol, 303.15 K): 0.0914
- solubility (mole fraction) (in ethanol, 308.15 K): 0.101
- solubility (mole fraction) (in ethanol, 313.15 K): 0.111
- solubility (mole fraction) (in ethanol, 318.15 K): 0.123
- solubility (mole fraction) (in ethanol, 323.15 K): 0.136
- solubility (mole fraction) (in ethylene glycol, 278.15 K): 0.0208
- solubility (mole fraction) (in ethylene glycol, 283.15 K): 0.0236
- solubility (mole fraction) (in ethylene glycol, 288.15 K): 0.0273
- solubility (mole fraction) (in ethylene glycol, 293.15 K): 0.0309
- solubility (mole fraction) (in ethylene glycol, 298.15 K): 0.0349
- solubility (mole fraction) (in ethylene glycol, 303.15 K): 0.039
- solubility (mole fraction) (in ethylene glycol, 308.15 K): 0.0437
- solubility (mole fraction) (in ethylene glycol, 313.15 K): 0.0483
- solubility (mole fraction) (in ethylene glycol, 318.15 K): 0.0534
- solubility (mole fraction) (in ethylene glycol, 323.15 K): 0.0597
- solubility (mole fraction) (in methanol, 278.15 K): 0.0666
- solubility (mole fraction) (in methanol, 283.15 K): 0.0766
- solubility (mole fraction) (in methanol, 288.15 K): 0.0874
- solubility (mole fraction) (in methanol, 293.15 K): 0.0983
- solubility (mole fraction) (in methanol, 298.15 K): 0.11
- solubility (mole fraction) (in methanol, 303.15 K): 0.123
- solubility (mole fraction) (in methanol, 308.15 K): 0.138
- solubility (mole fraction) (in methanol, 313.15 K): 0.152
- solubility (mole fraction) (in methanol, 318.15 K): 0.168
- solubility (mole fraction) (in methanol, 323.15 K): 0.185
- solubility (mole fraction) (in water, 278.15 K): 2.58e-06
- solubility (mole fraction) (in water, 283.15 K): 3.05e-06
- solubility (mole fraction) (in water, 288.15 K): 3.53e-06
- solubility (mole fraction) (in water, 293.15 K): 4.12e-06
- solubility (mole fraction) (in water, 298.15 K): 4.73e-06
- solubility (mole fraction) (in water, 303.15 K): 5.33e-06
- solubility (mole fraction) (in water, 308.15 K): 5.99e-06
- solubility (mole fraction) (in water, 313.15 K): 6.71e-06
- solubility (mole fraction) (in water, 318.15 K): 7.57e-06
- solubility (mole fraction) (in water, 323.15 K): 8.49e-06
